For one series, the system named is NCCIT cells. Put plainly: Cell viability (alamar blue), cisplatin with concurrent EET-A. It counts as cell-based, human. Here is the method: In this study, HEK293, U87MG, Hela cell-lines were obtained from the ATCC (Manassas, Va., USA) (HEK293, U87MG, Hela), and NCCIT was collected from Department of Pediatrics, UT Southwestern Medical Center at Dallas, Tex., USA. All cell lines were maintained in DMEM or RPIM with 10% fetal bovine serum and penicillin/streptomycin purchased from Life Technologies (Grand Island, N.Y., USA). Cisplatin was purchased from either Sigma (St. Louis, Mo., USA) or CalBiochem/EMD Biosciences (Billerica, Mass., USA). Cells were seeded in 96-well plates at 500 to 4,000 cells per well depends on cell type. […] Cell viability was measured by alamar blue assay using resazurin (Sigma Aldrich) according to the manufacturer's guidelines. Viability results were measured by fluorescence/absorbance in a 96-well plate reader from BMG Labtech (Cary, N.C., USA) and the IC50 was calculated by GraphPad Prism® software (GraphPad Software Inc, La Jolla, Calif., USA).

A further series deals with Human recombinant sEH (Homo sapiens (Human), UniProt P34913). As to the kind of experiment: Soluble epoxide hydrolase inhibition (PHOME fluorescent substrate). As to conditions: Table 1 head prints μM (Table 2 prints nM for same numbers); read-out: sEHi IC50. It counts as biochemical. Here is the method: Compounds were tested for their ability to inhibit recombinant soluble epoxide hydrolase (sEH) protein. The assay utilizes (3-Phhenyl-oxiranyl)-acetic acid cyano-(6-methoxy-naphthalen-2-yl)-methyl ester (PHOME), a sensitive substrate for sEH that can be used to monitor the activity of both human and murine enzymes. […] Human recombinant sEH was incubated with substrate and compounds ranging in concentration from 0.1 to 1000 nM.
Chain of Human recombinant sEH (P34913 whole entry): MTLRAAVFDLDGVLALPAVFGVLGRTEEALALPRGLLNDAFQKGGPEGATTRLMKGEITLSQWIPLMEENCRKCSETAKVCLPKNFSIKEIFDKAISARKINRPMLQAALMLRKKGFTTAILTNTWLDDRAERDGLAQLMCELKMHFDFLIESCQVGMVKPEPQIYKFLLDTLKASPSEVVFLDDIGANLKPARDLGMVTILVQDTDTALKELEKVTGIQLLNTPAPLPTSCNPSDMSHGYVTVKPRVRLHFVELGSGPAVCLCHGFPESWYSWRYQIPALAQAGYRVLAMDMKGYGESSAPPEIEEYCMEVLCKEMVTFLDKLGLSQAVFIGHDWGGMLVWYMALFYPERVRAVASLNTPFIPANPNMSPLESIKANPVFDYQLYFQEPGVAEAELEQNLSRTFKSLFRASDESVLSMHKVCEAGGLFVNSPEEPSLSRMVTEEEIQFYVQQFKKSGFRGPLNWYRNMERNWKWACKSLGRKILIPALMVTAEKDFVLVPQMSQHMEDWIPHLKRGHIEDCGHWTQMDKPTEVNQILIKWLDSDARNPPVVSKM

The next series deals with bovine coronary artery. Put plainly: Vasorelaxant activity in bovine coronary artery rings precontracted with U-46619. The settings on record: Bos taurus. It counts as cell-based. Here is the method: Vasorelaxant activity was measured in bovine coronary artery. Bovine hearts were obtained and the left anterior descending coronary artery was dissected and cleaned of connective tissue. Vessels of 1 mm diameter were cut into rings of 3 mm width as previously described (3, 27, 39). […] The vessels were suspended from a pair of stainless steel hooks in a 6-ml water-jacketed organ chamber. […] One hook was anchored to a steel rod and the other hook to a force transducer (model FT-03C; Grass Instruments, West Warwick, R.I.). Tension of the vessel was measured by an ETH-400 bridge amplifier, and the data were acquired with a MacLab 8e analog-to-digital converter and MacLab software version 3.5.6 (AD Instruments, Milford, Mass.) and stored on a Macintosh computer for subsequent data analysis.
Basal tension was set at the length-tension maximum of 3.5 g and equilibrated for 1.5 h. KCl (40 mM) was added to the chamber until reproducible maximal contractions were maintained. […] Cumulative additions of compounds were added to the chamber. Between concentration-response curves, the chambers were rinsed with fresh Krebs buffer, 40 mM KCl was administered to determine the maximum contraction, and the vessels were rinsed. Consecutive concentration-response curves were performed with 14,15-EET followed by a concentration-response curve to a compound. The experiment was always repeated with the order of the agonists reversed. […] The relaxation was plotted versus compound concentration and the EC50 determined utilizing statistical software.

The record followed here is patent publication US9127027B2, “Epoxyeicosatrienoic acid analogs and methods of making and using the same” (The Medical College of Wisconsin, Inc., priority 2011, dated 2015).

SMILES strings stand for the structures. Like-named read-outs stand apart in the source and are kept apart here.

As to `N.N.[Cl][Pt][Cl]` [cisplatin], the IC50 with NCCIT cells (read-out: IC50 for cisplatin, with 0 ng/ml EET-A) turned out to be 2600 nM; with NCCIT cells (read-out: IC50 for cisplatin, with 1 ng/ml EET-A), 2550 nM; with NCCIT cells (read-out: IC50 for cisplatin, with 10 ng/ml EET-A) it was 2440 nM.

The term EC50 denotes the concentration that produces a half-maximal response. Broadly, the melting point is the temperature, or range, at which the solid turns liquid. `CCCCCNC(=O)NCCCC/C=C\CCOc1cccc2sc(NC(C)=O)nc12` [Compound 33, N-(4-(8-(3-n-Pentylureido)oct-3(Z)-enyloxy)benzo[d]thiazol-2-yl)acetamide] registered a melting point of 113.7 to 113.8 °C. At Human recombinant sEH, the IC50 is 0.282 µM. The activation at 10 µM in the series with bovine coronary artery (10 μM, 100% relaxation = basal pre-U-46619 tension, read-out: Vascular Relax. % (10 μM)) was determined as 73%. The concentration giving a half-maximal response (EC50) in the series with bovine coronary artery (bovine coronary artery, read-out: Vascular Relax. EC50) amounted to 3300 nM.
